Like-named read-outs stand apart in the source and are kept apart here.

The target of the experiment is T1, human GnRH receptor (Homo sapiens, UniProt P30968).
T1 construct: The cDNA for the human GnRH receptor is cloned into the plasmid expression vector, pcDNA 3; expressed in transfected cells; host or cells: HEK 293 cells, stably transfected (pcDNA 3); membrane preparation
T1 sequence (P30968 1-328): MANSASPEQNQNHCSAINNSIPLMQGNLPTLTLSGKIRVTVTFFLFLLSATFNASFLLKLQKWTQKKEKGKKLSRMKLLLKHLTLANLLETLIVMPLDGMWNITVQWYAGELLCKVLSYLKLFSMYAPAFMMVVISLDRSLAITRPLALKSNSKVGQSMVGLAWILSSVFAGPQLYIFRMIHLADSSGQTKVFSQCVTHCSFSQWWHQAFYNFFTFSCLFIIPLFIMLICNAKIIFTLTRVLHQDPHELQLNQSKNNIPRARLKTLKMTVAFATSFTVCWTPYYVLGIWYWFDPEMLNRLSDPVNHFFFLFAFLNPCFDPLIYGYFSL
Put plainly: GnRH receptor competitive radioligand binding assay (125I-GnRH-A, HEK 293 cell membranes). Particulars: compound at 10 μM. The text has this:
The cDNA for the human GnRH receptor is cloned into the plasmid expression vector, pcDNA 3 (In Vitrogen), and stably transfected in HEK 293 cells (a cell line developed by Dr. Stuart Sealfon, Mount Sinai Medical School, New York, N.Y.).
The human GnRH receptor (hGnRH) is cloned into pcDNA 3 (In Vitrogen), which provides high-level expression and a neomycin resistance marker. Lipofectamine (GIBCO BRL) is used to transfect HEK 293 cells with plasmid DNA. This method involves mixing the plasmid and reagent in serum-free medium, allowing DNA-liposome complexes to form, and overlaying cells with this solution. The HEK 293 cells are plated (seeded) on a 10-cm tissue culture dish at a density of 3×10^6 cells/dish the day before transfection. For each plate, 8 μg DNA plus 0.8 mL serum-free medium is mixed with 48 μL lipofectamine plus 0.8 mL serum-free medium, followed by incubation for 30 minutes at room temperature to allow DNA-liposome complexes to form. Serum-free medium is added to give a final volume of 6 mL/plate. The cells are rinsed twice with serum-free medium and overlayed with the DNA-liposome mixture. Five hours after transfection, an equal volume (6 mL) of medium containing 20% FBS (fetal bovine serum) is added. The cells are fed with fresh complete medium 18-24 hours after transfection. The cells are split 72 hours following transfection, at densities of 1:10 and 1:20. Stable tranformants are selected for by growth of the cells in antibiotic containing medium (G418, Sigma Chemical Company (also known as Geneticin)). Colonies are isolated and tested for receptor expression by radioligand binding and by measuring phosphoinositol turnover.
HEK 293 cells stably transfected with human GnRH receptors as described above are grown in MEM (minimal essential medium, available from Sigma Chemical Company) supplemented with 0.1% G418 (Sigma Chemical Company). Cells are homogenized in buffer A containing 50 mM Tris (pH 74.), 0.32M sucrose, 2 mM ethyleneglycol-bis(β-aminoethyl)-N,N,N′,N′-tetraacetic acid (EGTA), 1 mM phenylmethylsulfonyl fluoride (PMSF), 5 μg/mL aprotinen, 5 μg/mL Pepstatin A, and 1 μg/mL leupeptin. The homogenized cells are centrifuged at 4° C. at 20,000×g for 25 minutes, resuspended in buffer A, and recentrifuged at 4° C. at 20,000×g for an additional 25 minutes. Total membrane protein is determined with a BCA kit (Pierce, Rockford, Ill.). Membranes are stored at −70° C. at a final membrane protein concentration of 5 mg/mL.
The radioiodinated agonist analog of GnRH, [des-Gly^10, D-Ala^8]GnRH ethylamide (GnRH-A), is used as the labeled ligand. One μg of GnRH-A diluted in 0.1M acetic acid is added to an lodogen®-coated borosilicate glass tube pierce) containing 35 μL of 0.05M phosphate buffer (pH 7.4-7.6) and 1 mCi of Na[^125I]. The reaction mixture is vortexed and incubated for 1 minute at room temperature. After one minute, the mixture is vortexed again and allowed to incubate for an additional minute. Two mL of 0.5M acetic acid/1% BSA is added to the reaction tube, and the mixture is added to a C18 Sep-Pak cartridge. The cartridge is washed with subsequent washes of 5 mL H2O and 5 mL 0.5M acetic acid, and then eluted with 5×1 mL of 60% CH3CN/40% 0.5M acetic acid. The eluant is diluted with 3×volume of HPLC buffer A (0.1% TFA in H2O) and loaded onto a C18 column. The iodinated product is eluted over 20-25 minutes with a gradient of 25-100% CH3CN containing 0.1% TFA. The radioactive fractions (750 μL/fraction) are collected into clean polypropylene tubes containing 10 μL of 10% BSA. Fractions are assessed for biological activity by radioligand binding. Active fractions are utilized to screen the compounds for competitive binding assays.
HEK 293 cell membranes stably expressing hGnRHR (human GnRH receptors) are diluted to 0.5-1.0 mg/mL with assay buffer containing 50 mM HEPES (pH 7.4), 1 mM ethylenediarninetetraacetic acid (EDTA), 2.5 mM MgCl2, and 0.1% BSA. […]

Setting [1] is: average of 1st and 2nd test, read-out: Average % Remaining (percent of specific binding remaining).
Setting [2] is: crude compounds, 125I-GnRH-A, lower value = higher inhibition, read-out: % Remaining 1st Test (percent of specific binding remaining).
Where [3] appears, read: crude compounds, 125I-GnRH-A, lower value = higher inhibition, read-out: % Remaining 2nd Test (percent of specific binding remaining).

Take `CC(C)(C)c1ccc(CN(Cc2ccc(CNC(=N)N)cc2)C(=O)c2cccc3ccccc23)cc1` [Compound 1]: the remaining activity at 10 µM under setting [1] was found to be 57%, the remaining activity at 10 µM under setting [2] turned out to be 57% and the remaining activity at 10 µM under setting [3] is 57%.

Consider `CC(C)(C)c1ccc(CN(Cc2ccc(CNC(=N)N)cc2)C(=O)c2ccccc2)cc1` [Compound 2], for which the remaining activity at 10 µM reads like this: under setting [1], 57%; under setting [2], 59%; under setting [3], 54%.

`CN(C)CCCOc1ccc(CN(Cc2ccc(CNC(=N)N)cc2)C(=O)c2ccc3ccccc3c2)cc1` [Compound 3]: the remaining activity at 10 µM reads like this: under setting [1], 55%; under setting [2], 58%; under setting [3], 57%.

Consider `N=C(N)NCc1ccc(CN(CC23CC=CCC2C2CC=CCC2O3)C(=O)c2cccc3ccccc23)cc1` (stereo not drawn) [Compound 4], for which the remaining activity at 10 µM is, setting by setting: under setting [1], 40%; under setting [2], 40%; under setting [3], 40%.

As for `N=C(N)NCc1ccc(CN(CC23CC=CCC2C2CC=CCC2O3)C(=O)c2ccc3ccccc3c2)cc1` (stereo not drawn) [Compound 5], the remaining activity at 10 µM came to 37% under setting [1], 31% under setting [2] and 33% under setting [3].

As for `N=C(N)NCc1ccc(CN(CC23CC=CCC2C2CC=CCC2O3)C(=O)c2cccs2)cc1` (stereo not drawn) [Compound 6], the remaining activity at 10 µM under setting [1] is 46%, the remaining activity at 10 µM under setting [2] was found to be 47% and the remaining activity at 10 µM under setting [3] was determined as 45%.

As to `N=C(N)NCc1ccc(CN(CC23CC=CCC2C2CC=CCC2O3)C(=O)c2ccco2)cc1` (stereo not drawn) [Compound 7], the remaining activity at 10 µM is 53% under setting [1], 51% under setting [2] and 55% under setting [3].

As for `N=C(N)NCc1ccc(CN(CC23CC=CCC2C2CC=CCC2O3)C(=O)c2ccccc2)cc1` (stereo not drawn) [Compound 8], the remaining activity at 10 µM runs as follows: under setting [1], 45%; under setting [2], 42%; under setting [3], 48%.

`N=C(N)NCc1ccc(CN(CC23CC=CCC2C2CC=CCC2O3)C(=O)c2ccc(Cl)nc2)cc1` (stereo not drawn) [Compound 9]: the remaining activity at 10 µM runs as follows: under setting [1], 52%; under setting [2], 51%; under setting [3], 53%.

Regarding `Cc1cc2c(cc1CN(Cc1ccc(CNC(=N)N)cc1)C(=O)C1CCCCC1)C(C)(C)CCC2(C)C` [Compound 10], the remaining activity at 10 µM amounted to 53% under setting [1], 51% under setting [2] and 54% under setting [3].

With `Cc1cc2c(cc1CN(Cc1ccc(CNC(=N)N)cc1)C(=O)c1cccc3ccccc13)C(C)(C)CCC2(C)C` [Compound 11], the remaining activity at 10 µM is, setting by setting: under setting [1], 53%; under setting [2], 55%; under setting [3], 50%.

Consider `Cc1cc2c(cc1CN(Cc1ccc(CNC(=N)N)cc1)C(=O)c1ccco1)C(C)(C)CCC2(C)C` [Compound 13], for which the remaining activity at 10 µM is 13% under setting [1], 14% under setting [2] and 11% under setting [3].

For `Cc1cc2c(cc1CN(Cc1ccc(CNC(=N)N)cc1)C(=O)c1ccccc1)C(C)(C)CCC2(C)C` [Compound 14], the remaining activity at 10 µM under setting [1] was 55%, the remaining activity at 10 µM under setting [2] turned out to be 56% and the remaining activity at 10 µM under setting [3] turned out to be 54%.

For the compound `CC(=O)N(Cc1ccc(CNC(=N)N)cc1)Cc1cc2c(cc1C)C(C)(C)CCC2(C)C` [Compound 15], the remaining activity at 10 µM reads like this: under setting [1], 59%; under setting [2], 58%; under setting [3], 60%.

Turning to `Cc1cc2c(cc1CN(Cc1ccc(CNC(=N)N)cc1)C(=O)c1ccc(Cl)nc1)C(C)(C)CCC2(C)C` [Compound 16], the remaining activity at 10 µM is 49% under setting [1], 50% under setting [2] and 47% under setting [3].

`N=C(N)NCc1ccc(CN(Cc2ccc(OCc3ccccc3)c(OCc3ccccc3)c2)C(=O)c2ccccc2)cc1` [Compound 19]: the remaining activity at 10 µM is, setting by setting: under setting [1], 45%; under setting [2], 47%; under setting [3], 42%.

In the case of `N=C(N)NCc1ccc(CN(Cc2ccc(OCc3ccccc3)c(OCc3ccccc3)c2)C(=O)c2ccc(Cl)nc2)cc1` [Compound 20], the remaining activity at 10 µM runs as follows: under setting [1], 57%; under setting [2], 60%; under setting [3], 54%.

Turning to `CC(=O)N(Cc1ccc(CNC(=N)N)cc1)Cc1ccc(OCc2ccccc2)c(OCc2ccccc2)c1` [Compound 21], the remaining activity at 10 µM by setting is: under setting [1], 49%; under setting [2], 46%; under setting [3], 51%.

On to `CCOc1cc(OCC)c(OCC)cc1CN(Cc1ccc(CNC(=N)N)cc1)C(=O)c1ccco1` [Compound 22], for which the remaining activity at 10 µM reads like this: under setting [1], 55%; under setting [2], 52%; under setting [3], 57%.

For `CC(C)(C)c1ccc(CN(CCCCNC(=N)N)C(=O)c2cccc3ccccc23)cc1` [Compound 23], the remaining activity at 10 µM is, setting by setting: under setting [1], 49%; under setting [2], 48%; under setting [3], 50%.

On to `CC(C)(C)c1ccc(CN(CCCCNC(=N)N)C(=O)c2ccc3ccccc3c2)cc1` [Compound 24], for which the remaining activity at 10 µM by setting is: under setting [1], 56%; under setting [2], 58%; under setting [3], 58%.

In the case of `N=C(N)NCCCCN(CC12CC=CCC1C1CC=CCC1O2)C(=O)c1cccc2ccccc12` (stereo not drawn) [Compound 25], the remaining activity at 10 µM runs as follows: under setting [1], 46%; under setting [2], 41%; under setting [3], 51%.

Take `N=C(N)NCCCCN(CC12CC=CCC1C1CC=CCC1O2)C(=O)c1ccc2ccccc2c1` (stereo not drawn) [Compound 26]: the remaining activity at 10 µM is, setting by setting: under setting [1], 36%; under setting [2], 35%; under setting [3], 37%.

On to `Cc1cc2c(cc1CN(CCCCNC(=N)N)C(=O)C1CCCCC1)C(C)(C)CCC2(C)C` [Compound 27], for which the remaining activity at 10 µM under setting [1] amounted to 59%, the remaining activity at 10 µM under setting [2] stood at 56% and the remaining activity at 10 µM under setting [3] was found to be 62%.

Take `Cc1cc2c(cc1CN(CCCCNC(=N)N)C(=O)c1cccc3ccccc13)C(C)(C)CCC2(C)C` [Compound 28]: the remaining activity at 10 µM under setting [1] worked out at 52%, the remaining activity at 10 µM under setting [2] amounted to 46% and the remaining activity at 10 µM under setting [3] is 57%.

Turning to `Cc1cc2c(cc1CN(CCCCNC(=N)N)C(=O)c1ccc3ccccc3c1)C(C)(C)CCC2(C)C` [Compound 29], the remaining activity at 10 µM was 57% under setting [1], 53% under setting [2] and 61% under setting [3].
